According to PubChem BioAssay AID1918996 (Molecular Pharmacology Branch, DTP, NCI, 2023):

Test system: 349418-098-R-PDC complex spheroid growth
Assay: Anticancer human tumor 349418-098-R-PDC patient-derived lung adenocarcinoma cell line growth inhibition [AhR]
Details: for IC50: curve of first compound; for viability, T/C: stronger effect = lower value; active = viability on the fitted dose curve at most 10% of control; inactive = the rest
In short: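 Complex tumor spheroids co-cultured with HUVEC and human MSC stroma; AhR antagonists tested in combination with standard-of-care and investigational agents. Top concentration at or near clinical Cmax (else 10 microM), half-log dilutions; growth expressed as percent test/control.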
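Note: spheroids exposed to agents for seven days before luminescence viability read.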
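Throughout, for viability, T/C: spheroids also contain HUVEC endothelial cells and human MSC stroma.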

CC[C@@]1(O)C(=O)OCc2c1cc1n(c2=O)Cc2cc3c(CN(C)C)c(O)ccc3nc2-1 + Cc1cncc(-c2nc(NCCc3c[nH]c4ccccc34)c3ncn(C(C)C)c3n2)c1
14.4 nM: IC50 (second compound 1 µM)
inactive: viability, T/C (second compound 0.1 µM, first compound 0.000316 µM) 102% | viability, T/C (second compound 0.1 µM, first compound 0.001 µM) 93.9% | viability, T/C (second compound 0.1 µM, first compound 0.00316 µM) 91.6% | viability, T/C (second compound 0.1 µM, first compound 0.01 µM) 60.7% | viability, T/C (second compound 0.1 µM, first compound 0.0316 µM) 29.4% | viability, T/C (second compound 0.316 µM, first compound 0.000316 µM) 87.3% | viability, T/C (second compound 0.316 µM, first compound 0.001 µM) 94% | viability, T/C (second compound 0.316 µM, first compound 0.00316 µM) 86.4% | viability, T/C (second compound 0.316 µM, first compound 0.01 µM) 60.3% | viability, T/C (second compound 0.316 µM, first compound 0.0316 µM) 23.8% | viability, T/C (second compound 1 µM, first compound 0.000316 µM) 90.6% | viability, T/C (second compound 1 µM, first compound 0.001 µM) 93.5% | viability, T/C (second compound 1 µM, first compound 0.00316 µM) 84.2% | viability, T/C (second compound 1 µM, first compound 0.01 µM) 62% | viability, T/C (second compound 1 µM, first compound 0.0316 µM) 24.5% | viability, T/C (second compound 3.16 µM, first compound 0.000316 µM) 24.8% | viability, T/C (second compound 3.16 µM, first compound 0.001 µM) 19.5% | viability, T/C (second compound 3.16 µM, first compound 0.00316 µM) 21% | viability, T/C (second compound 3.16 µM, first compound 0.01 µM) 14.4% | viability, T/C (second compound 3.16 µM, first compound 0.0316 µM) 10.1%
14.1 nM: IC50 (second compound 0.316 µM)
active: viability, T/C (second compound 0.1 µM, first compound 0.1 µM) 6.14% | viability, T/C (second compound 0.316 µM, first compound 0.1 µM) 6.37% | viability, T/C (second compound 1 µM, first compound 0.1 µM) 7.22% | viability, T/C (second compound 3.16 µM, first compound 0.1 µM) 5.91% | viability, T/C (second compound 10 µM, first compound 0.000316 µM) 1.41% | viability, T/C (second compound 10 µM, first compound 0.001 µM) 1.47% | viability, T/C (second compound 10 µM, first compound 0.00316 µM) 1.56% | viability, T/C (second compound 10 µM, first compound 0.01 µM) 1.49% | viability, T/C (second compound 10 µM, first compound 0.0316 µM) 1.32% | viability, T/C (second compound 10 µM, first compound 0.1 µM) 1.19%
15.3 nM: IC50 (second compound 0.1 µM)
< 0.316 nM: IC50 (second compound 3.16 µM) | IC50 (second compound 10 µM)
